In the assay the test system is organotypic spinal motor neurons. In words: organotypic spinal motor neuron / THA neuroprotection assay. It counts as cell-based, Sprague-Dawley rat. The settings on record: exposure of neurons with THA alone.

Description: Each experiment consists of two 6-well plates with 5 slices from 4 different animals per well. Media changes are performed every 3 to 4 days. Cultures are treated with THA [L(−)-threo-3-hydroxyaspartic acid; Tocris Cookson Inc., Ballwin, Mo.] at 200 μM+compound (10 μM) after one week in culture. The control is an untreated sample with 0.1% DMSO as vehicle. The THA control is a THA treated sample with 0.1% DSMO as vehicle. Two wells are used per condition. One media change with new THA and compounds is performed. The experiment is stopped 6 to 8 days following drug treatment (13-15 total days in vitro, DIV) as dictated by visual assessment of lesion, by fixation with 4% paraformaldehyde/0.1 M phosphate buffer for 30 minutes. Slices are permeabilized with 100% cold methanol for 10 minutes. Slices are transferred to staining wells. […]
Quantification of surviving neurons is performed on a Ziess Axiovert microscope. Neuronal survival is determined by observing an intact neuronal cell body with processes located ventrally of the central canal in each hemisphere. […] Each hemisphere is counted individually. The statistics can be performed with StatView software on a minimum of three different experiments per condition and significance should be determined as compared to THA control. The percent of protection can be determined from the average number of living neurons by the following equation: […]

Regarding `N[C@H](C(=O)O)[C@H](O)C(=O)O` [THA, L(−)-threo-3-hydroxyaspartic acid], the “death of the neurons” value is 55-60%.

The values are drawn from US20040152745A1, “Dipeptidyl peptidase IV inhibitors and methods of making and using dipeptidyl peptidase IV inhibitors” (Guilford Pharmaceuticals, Inc., priority 1999, published 2004).
